Structures are written as SMILES. “Also recorded” adds a separate entry of the source. Counter-ions that a name gives are not always drawn.

Consider one compound from patent publication US8686050B2, “Diglycidic ether derivative therapeutics and methods for their use” (British Columbia Cancer Agency Branch, priority 2008, dated 2014).

One assay concerns the target T1, AR (Homo sapiens, UniProt P10275, T878A).
T1 sequence (P10275 1-920 T878A): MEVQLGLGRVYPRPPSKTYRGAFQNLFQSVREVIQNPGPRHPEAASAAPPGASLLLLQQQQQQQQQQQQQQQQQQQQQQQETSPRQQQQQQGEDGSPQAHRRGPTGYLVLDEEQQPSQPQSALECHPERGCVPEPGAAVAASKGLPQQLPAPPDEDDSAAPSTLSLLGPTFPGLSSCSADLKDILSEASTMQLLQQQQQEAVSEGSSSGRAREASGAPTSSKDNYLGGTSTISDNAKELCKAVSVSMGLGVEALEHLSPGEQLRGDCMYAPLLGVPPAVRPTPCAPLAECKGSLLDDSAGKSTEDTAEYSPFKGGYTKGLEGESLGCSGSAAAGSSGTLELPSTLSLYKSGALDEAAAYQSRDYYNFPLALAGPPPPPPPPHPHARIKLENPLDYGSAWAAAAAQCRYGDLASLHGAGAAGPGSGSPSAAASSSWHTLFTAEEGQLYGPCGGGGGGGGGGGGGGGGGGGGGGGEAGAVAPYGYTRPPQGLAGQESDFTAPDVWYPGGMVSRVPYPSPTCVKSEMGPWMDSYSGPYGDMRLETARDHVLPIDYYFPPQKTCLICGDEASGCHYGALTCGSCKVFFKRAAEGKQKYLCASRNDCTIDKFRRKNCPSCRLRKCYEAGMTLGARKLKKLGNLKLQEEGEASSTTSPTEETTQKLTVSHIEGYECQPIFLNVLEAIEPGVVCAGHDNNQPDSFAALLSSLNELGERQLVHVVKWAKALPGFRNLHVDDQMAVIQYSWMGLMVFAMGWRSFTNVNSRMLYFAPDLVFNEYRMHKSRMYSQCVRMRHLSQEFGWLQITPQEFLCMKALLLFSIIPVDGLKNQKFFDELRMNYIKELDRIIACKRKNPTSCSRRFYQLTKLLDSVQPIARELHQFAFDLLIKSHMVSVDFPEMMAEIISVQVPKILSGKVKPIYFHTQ
Kind of assay: Western blot of AR protein in LNCaP whole cell lysates. The assay is classed as cell-based. More on the design: LNCaP cells express endogenous AR and secrete prostate-specific antigen (PSA); endogenous in cells; host or cells: LNCaP. On the technique in general: Immunoblotting shows a protein as a band on a membrane.

Assay [1] deals with T2, Gal4 DBD-AR1-558 (AR NTD) (Homo sapiens, UniProt P10275).
T2 construct: cloning amino acids 1-558 of the human AR NTD into the C-terminus of Gal4 DBD; expressed in transfected cells; host or cells: LNCaP
T2 sequence (P10275 1-558): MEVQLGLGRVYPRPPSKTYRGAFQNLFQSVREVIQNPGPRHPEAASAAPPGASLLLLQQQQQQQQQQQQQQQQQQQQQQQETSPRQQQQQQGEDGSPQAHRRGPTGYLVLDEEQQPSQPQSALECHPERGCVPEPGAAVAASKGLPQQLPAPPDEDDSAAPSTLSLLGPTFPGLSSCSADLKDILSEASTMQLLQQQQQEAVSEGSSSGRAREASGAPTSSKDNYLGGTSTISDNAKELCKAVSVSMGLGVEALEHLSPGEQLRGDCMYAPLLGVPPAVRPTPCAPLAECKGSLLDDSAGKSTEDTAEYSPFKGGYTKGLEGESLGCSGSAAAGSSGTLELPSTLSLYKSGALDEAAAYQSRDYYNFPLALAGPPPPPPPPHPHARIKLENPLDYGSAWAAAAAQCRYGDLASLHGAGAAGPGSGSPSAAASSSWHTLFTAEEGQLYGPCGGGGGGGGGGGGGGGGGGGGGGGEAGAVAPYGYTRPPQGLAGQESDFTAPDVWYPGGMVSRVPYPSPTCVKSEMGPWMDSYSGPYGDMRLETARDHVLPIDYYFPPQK
Briefly: Transactivation of the AR NTD (Gal4 DBD-AR1-558 with 5xGal4UAS-luciferase) in LNCaP cells. The assay is classed as cell-based. The following applies: LNCaP cells, 185-9-2 5 ug/ml=12 μM, bicalutamide 10 μM. The text has this: These fractions were next tested for their ability to inhibit the AR NTD. […] Extracts identified above were screened by such assays as well as some compounds purchased from commercial suppliers.
Expression vectors for these chimeric proteins were cotransfected into LNCaP cells with a reporter gene containing the Gal4-binding site as cis-acting elements (p5×Gal4UAS-TATA-luciferase).

The test system of another assay is PC3 cells. Briefly: Proliferation of PC3 cells (BrdU incorporation). The assay is classed as cell-based, human. To be noted: 185-9-2 5 μg/ml, 3 days. The text has this: LNCaP cells were employed initially for all experiments because they are well-differentiated human prostate cancer cells in which ligand-independent activation of the AR by FSK has been characterized (Nazareth et al 1996 J. Biol. Chem. 271, 19900-19907; and Sadar 1999 J. Biol. Chem. 274, 7777-7783). LNCaP cells express endogenous AR and secrete prostate-specific antigen (PSA) (Horoszewicz et al 1983 Cancer Res. 43, 1809-1818). LNCaP cells can be grown either as monolayers in cell culture or as tumors in the well-characterized xenograft model that progresses to androgen independence in castrated hosts (Sato et al 1996 J. Steroid Biochem. Mol. Biol. 58, 139-146; Gleave et al 1991 Cancer Res. 51, 3753-3761; Sato et al 1997 Cancer Res. 57, 1584-1589; and Sadar et al 2002 Mol. Cancer. Ther. 1(8), 629-637). […] Small molecules that specifically target the AR-NTD should have no effect on PC3 cells. […] Reporter specificity may be determined using several alternative reporter gene constructs. […]
The prostate gland is an androgen-dependent organ where androgens are the predominant mitogenic stimulus (Isaacs J T, Scott W W, Coffey D S., Prog Clin Biol Res. 1979; 33:133-44). […] BrdU incorporation was measured 4 days later to indicate changes in proliferation in response to androgen (FIG. 12). […]
In general terms: Uptake of a labelled nucleoside into DNA is a usual measure of proliferation.

As for `CC(C)(c1ccc(OCC(O)CO)cc1)c1ccc(OCC(O)CCl)cc1` (centres unmarked) [185-9-2, BADGE.HCL.H2O], at AR (LNCaP cells treated 3 or 16 hours), the “levels of AR protein in whole cell extracts” value is on record as “does NOT decrease levels of AR protein; also recorded: not decreased”. Moreover, the “levels of AR protein, long term incubation” value on AR (LNCaP cells, 48 hrs, presence or absence of DHT) is “did not reduce levels of AR protein”. The “FSK-induced transactivation of the AR NTD” value in assay [1] (FSK 50 μM) is “to baseline levels; also recorded: blocked”. Besides, in assay [1] (IL-6 50 ng/ml), the “IL-6-induced transactivation of the AR NTD” value is listed as “to baseline levels; also recorded: blocked”. The “proliferation of PC3 cells (BrdU incorporation)” value in the assay with PC3 cells is on record as “does NOT block proliferation; also recorded: not to block proliferation”.
